The text below walks through data of patent publication US20090138988A1, “MODIFICATION OF PLANT DISEASE RESISTANCE” (priority 2007, published 2009).

Molecules are shown by their SMILES.

This test has as its system P. syringae pv. tabaci. The test is described as follows: Squalene complementation of SQS1 RNAi line resistance to nonhost pathogen. It counts as in vivo, Arabidopsis. How it is done:
Squalene was supplied at the concentration as indicated above each panel when transplanting two-week old seedlings and thereafter watering. P. syringae pv. tabaci was infiltrated into leaves of four-week old plants at 1×10^7 cfu/ml. The inoculated plants were kept at 19-21° C. and covered to keep high humidity. Pictures were taken 3 days post inoculation
It was hypothesized that SQS1 RNAi lines would have less squalene compared to wild-type plants. Arabidopsis has two SQS genes: SQS1 and SQS2. T-DNA knockout lines for SQS2 are not available in SALK or GABI collections. Even though both SQS1 and SQS2 have more than 80% nucleotide identity, in the SQS1 RNAi line, only the transcripts of SQS1 was reduced but not SQS2 (FIG. 10). A brief pathway of sterol biosynthesis in plants and also other pathways that may be affected by silencing of SQS1 are shown in FIG. 11. […] It was therefore shown that squalene plays a critical role in conferring nonhost resistance against certain pathogens, and the role is recoverable in susceptible RNAi lines by squalene dosing.

Regarding `CC(C)=CCC/C(C)=C/CC/C(C)=C/CC/C=C(\C)CC/C=C(\C)CCC=C(C)C` [squalene], the “recovery of nonhost resistance of SQS1 RNAi lines” value is “completely recovered resistance phenotype back to wild-type levels” (10 μM squalene fed, P. syringae pv. tabaci 1×10^7 cfu/ml, 3 days post inoculation) and “recovered nonhost resistance in a dose dependent manner” (squalene fed at 1 μM to 10 μM, P. syringae pv. tabaci).
